As usually defined, the IC50 is the concentration needed to halve the response being measured. Broadly, the EC50 is the concentration that produces a half-maximal response. The Kd is the constant that tells how readily two partners part at equilibrium.

Where a SMILES comes first, the peptide text is derived from it. Where no end group is shown, it is not given here. [ ]: non-standard residue; d: D form. N‑methyl fused di‑pyrrolidine (I) = not defined here; ortho ether aromatic unit (VIII) = not defined here; phenylmethanamine linker (IX) = not defined here; NP‑inspired fragment III = not defined here; pyrrolidine (IV) = not defined here; NMeF = CN[C@@H](Cc1ccccc1)C(=O)O; NMeL = CN[C@@H](CC(C)C)C(=O)O; NMeV = CN[C@H](C(=O)O)C(C)C

The target in test [1] is T1, human MC1R (Homo sapiens, UniProt Q01726).
T1 construct: expressed in transfected cells
The test can be described thus: Melanocortin receptor radioligand binding (SPA, [125I]-NDP-α-MSH displacement), MC1R. The note with it: competitive binding, mean (± SEM) of at least three independent experiments, read-out: IC50 hMC1R binding.

Test [2] deals with T2, human MC3R (Homo sapiens, UniProt P41968).
T2 construct: expressed in transfected cells
The test can be described thus: Melanocortin receptor radioligand binding (SPA, [125I]-NDP-α-MSH displacement), MC3R. The note with it: competitive binding, mean (± SEM) of at least three independent experiments, read-out: IC50 hMC3R binding.

Test [3] has as its target T3, human MC4R (Homo sapiens, UniProt P32245).
T3 construct: expressed in transfected cells
As to the kind of experiment: Melanocortin receptor radioligand binding (SPA, [125I]-NDP-α-MSH displacement), MC4R. The note with it: competitive binding, mean (± SEM) of at least three independent experiments, read-out: IC50 hMC4R binding.

The target in a further test is T4, human MC5R (Homo sapiens, UniProt P33032).
T4 construct: expressed in transfected cells; host or cells: HEK293-6E suspension cells, transient expression; membranes
As to the kind of experiment: Melanocortin receptor radioligand binding (SPA, [125I]-NDP-α-MSH displacement), MC5R. The note with it: competitive binding, [125I]-NDP-α-MSH; mean (± SEM) of at least three independent experiments; read-out: IC50 hMC5R binding.

For test [4], the target named is T1, human MC1R. The test can be described thus: cAMP assay (LANCE) in T-Rex-293 cells expressing MC1R. It counts as cell-based. The note with it: for EC50: mean (± SEM) of at least three independent experiments, read-out: EC50 hMC1R cAMP; for % Effect hMC1R cAMP at 10 µM: % effect at 10 µM, compounds not reaching an upper plateau (#); for Emax: T-REx-293, read-out: % Effect hMC1R cAMP. In general terms: Cyclic AMP is a second messenger, typically raised through Gs and lowered through Gi signalling.

Test [5] concerns the target T2, human MC3R. The test can be described thus: cAMP assay (LANCE) in T-Rex-293 cells expressing MC3R. It counts as cell-based. The note with it: cAMP assay; mean (± SEM) of at least three independent experiments; read-out: EC50 hMC3R cAMP.
For test [6], the target named is T3, human MC4R. The test can be described thus: cAMP assay (LANCE) in T-Rex-293 cells expressing MC4R. The class given is cell-based. The note with it: cAMP assay; mean (± SEM) of at least three independent experiments; read-out: EC50 hMC4R cAMP.
Another test has as its target T5, SPSB2 (Homo sapiens, UniProt Q99619).
T5 chain: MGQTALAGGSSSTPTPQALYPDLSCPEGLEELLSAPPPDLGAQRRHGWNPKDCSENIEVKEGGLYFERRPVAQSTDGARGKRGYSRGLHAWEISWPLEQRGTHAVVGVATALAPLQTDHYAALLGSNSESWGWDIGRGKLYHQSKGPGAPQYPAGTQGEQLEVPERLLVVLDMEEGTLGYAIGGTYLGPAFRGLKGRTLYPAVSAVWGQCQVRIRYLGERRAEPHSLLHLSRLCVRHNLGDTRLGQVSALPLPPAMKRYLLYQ
The test can be described thus: SPR. A general note: Surface plasmon resonance follows binding to a sensor surface in real time, without labels.

T3 sequence (P32245 whole entry): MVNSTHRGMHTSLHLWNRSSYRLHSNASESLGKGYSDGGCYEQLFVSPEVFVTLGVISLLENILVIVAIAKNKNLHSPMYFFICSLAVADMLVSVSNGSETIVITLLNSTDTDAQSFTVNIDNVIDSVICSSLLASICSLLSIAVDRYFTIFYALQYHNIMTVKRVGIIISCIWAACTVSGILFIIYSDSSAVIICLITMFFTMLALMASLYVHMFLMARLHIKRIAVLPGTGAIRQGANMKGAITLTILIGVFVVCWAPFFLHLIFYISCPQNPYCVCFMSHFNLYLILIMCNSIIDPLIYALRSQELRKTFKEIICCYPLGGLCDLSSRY
T2 sequence (P41968 whole entry): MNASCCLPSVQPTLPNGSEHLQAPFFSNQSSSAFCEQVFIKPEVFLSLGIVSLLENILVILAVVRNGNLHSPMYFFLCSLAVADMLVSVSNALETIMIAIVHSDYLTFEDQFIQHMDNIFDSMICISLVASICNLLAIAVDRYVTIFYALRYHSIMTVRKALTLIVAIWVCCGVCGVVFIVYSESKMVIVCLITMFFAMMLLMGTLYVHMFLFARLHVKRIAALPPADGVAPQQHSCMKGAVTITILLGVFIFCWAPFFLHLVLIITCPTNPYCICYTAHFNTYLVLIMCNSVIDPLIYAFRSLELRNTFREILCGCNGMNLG
T1 sequence (Q01726 whole entry): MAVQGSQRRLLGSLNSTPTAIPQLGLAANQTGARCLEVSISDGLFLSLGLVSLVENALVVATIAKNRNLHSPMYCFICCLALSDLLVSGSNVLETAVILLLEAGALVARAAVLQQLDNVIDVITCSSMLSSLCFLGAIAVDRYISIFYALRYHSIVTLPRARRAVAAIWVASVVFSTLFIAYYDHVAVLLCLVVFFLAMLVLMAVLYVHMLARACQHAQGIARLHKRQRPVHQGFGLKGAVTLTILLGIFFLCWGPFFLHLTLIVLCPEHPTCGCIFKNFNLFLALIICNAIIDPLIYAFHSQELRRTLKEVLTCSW
T4 sequence (P33032 whole entry): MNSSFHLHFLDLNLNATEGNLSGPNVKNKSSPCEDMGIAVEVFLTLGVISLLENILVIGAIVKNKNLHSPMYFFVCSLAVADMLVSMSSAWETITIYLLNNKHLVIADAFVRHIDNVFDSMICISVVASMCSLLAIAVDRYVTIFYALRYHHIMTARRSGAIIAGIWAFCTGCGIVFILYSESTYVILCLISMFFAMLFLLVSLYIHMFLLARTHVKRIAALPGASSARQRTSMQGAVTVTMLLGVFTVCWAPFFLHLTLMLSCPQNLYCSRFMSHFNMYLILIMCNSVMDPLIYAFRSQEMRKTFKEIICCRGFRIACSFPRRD

Take `COc1ccc(N2C(=O)[C@@H]3[C@H](C2=O)[C@H]2N[C@@H]3C(=O)N(C)[C@@H](Cc3ccccc3)C(=O)N[C@@H](CCCNC(=N)N)C(=O)N[C@H](Cc3ccccc3)C(=O)N[C@H](Cc3ccccc3)C(=O)N[C@@H](CC(N)=O)C(=O)N[C@H](C(=O)NCC(N)=O)CCCCNC(=O)c3ccc2cc3)cc1` [K4-minor, [III-FRffNK ]G]: the IC50 on human MC1R [1] was more than 100 µM; on human MC3R [2] it was more than 100 µM; on human MC4R [3] it was more than 100 µM; at human MC5R, 91 ± 3 µM. In addition, the “% Effect hMC1R cAMP at 100 µM” value at human MC1R [4] (% effect at 100 µM, compounds not reaching an upper plateau (§)) amounted to 23%. The EC50 on human MC1R [4] (cAMP assay), on human MC3R [5] and at human MC4R [6] was more than 100 µM throughout.

Turning to `COc1cc(N2C(=O)[C@@H]3[C@H](C2=O)[C@H]2N[C@@H]3c3ccc(cc3)C(=O)NCCCC[C@@H](C(=O)NCC(N)=O)NC(=O)[C@H](CC(N)=O)NC(=O)[C@@H](Cc3ccccc3)NC(=O)[C@@H](Cc3ccccc3)NC(=O)[C@H](CCCNC(=N)N)NC(=O)[C@H](Cc3ccccc3)N(C)C2=O)cc(OC)c1OC` [K5-major, [XI-FRffNK ]G], the IC50 at human MC1R [1], on human MC3R [2], on human MC4R [3] and on human MC5R was more than 10 µM each time. Further, the EC50 at human MC1R [4] (cAMP assay), at human MC3R [5] and at human MC4R [6] was more than 10 µM throughout.

`CN1C(=O)[C@H]2N[C@@H](c3ccc(cc3)C(=O)NCCCC[C@@H](C(=O)N[C@@H](Cc3ccc(O)cc3)C(N)=O)NC(=O)[C@H](Cc3ccccc3)NC(=O)[C@H](Cc3ccccc3)NC(=O)[C@H](CCCNC(=N)N)NC(=O)[C@@H]1Cc1ccccc1)[C@H]1C(=O)N(c3ccccc3)C(=O)[C@H]12` [N1-major*, [II-FRFFK ]Y]: the 50% inhibitory concentration (IC50) at human MC1R [1], on human MC3R [2], on human MC4R [3] and at human MC5R was more than 10 µM each time. In addition, the “% Effect hMC1R cAMP at 10 µM” value at human MC1R [4] is given as 33%. Besides, the EC50 at human MC1R [4] (cAMP assay), at human MC3R [5] and on human MC4R [6] was more than 10 µM in each case.

In the case of `CN1C(=O)[C@H]2N[C@@H](c3ccc(cc3)C(=O)NCCCC[C@@H](C(=O)NCC(N)=O)NC(=O)[C@H](Cc3ccccc3)NC(=O)[C@H](Cc3ccccc3)NC(=O)[C@H](CCCNC(=N)N)NC(=O)[C@@H]1Cc1ccccc1)[C@H]1C(=O)N(c3ccccc3)C(=O)[C@H]12` [N2-major*, [II-FRFFK ]G], the half-inhibitory concentration (IC50) was more than 100 µM on human MC1R [1], more than 100 µM at human MC3R [2], more than 100 µM at human MC4R [3] and 38 ± 2 µM at human MC5R. Besides, at human MC1R [4], the Emax was 46%. The EC50 on human MC1R [4] (cAMP assay) is 14 ± 4 µM; at human MC3R [5], more than 100 µM; on human MC4R [6] it was more than 100 µM.

`CN1C(=O)[C@H]2N[C@@H](c3ccc(cc3)C(=O)NCCCC[C@@H](C(N)=O)NC(=O)[C@H](Cc3ccccc3)NC(=O)[C@H](Cc3ccccc3)NC(=O)[C@H](CCCNC(=N)N)NC(=O)[C@@H]1Cc1ccccc1)[C@H]1C(=O)N(c3ccccc3)C(=O)[C@H]12` [N3-major*, [II-FRFFK ]]: the IC50 at human MC1R [1] was more than 100 µM; at human MC3R [2], more than 100 µM; at human MC4R [3], more than 100 µM; on human MC5R it was 74 ± 4 µM. Further, on human MC1R [4], the Emax is 40%. Further, the results for the EC50 at human MC1R [4] (cAMP assay), on human MC3R [5] and at human MC4R [6] were 22 ± 3 µM, more than 100 µM and more than 100 µM, respectively.

As to `CN1C(=O)[C@@H]2[C@H](C1=O)[C@H]1N[C@@H]2C(=O)N(C)[C@@H](Cc2ccccc2)C(=O)N[C@@H](CCCNC(=N)N)C(=O)N[C@H](Cc2ccccc2)C(=O)N[C@H](Cc2ccccc2)C(=O)N[C@H](C(=O)N[C@@H](Cc2ccc(O)cc2)C(N)=O)CCCCNC(=O)c2ccc1cc2` [O1-minor, [I-FRffK ]Y], the IC50 at human MC1R [1], at human MC3R [2], at human MC4R [3] and at human MC5R was more than 10 µM each time. The “% Effect hMC1R cAMP at 10 µM” value on human MC1R [4] was 21%. Further, the concentration for a half-maximal effect (EC50) at human MC1R [4] (cAMP assay), at human MC3R [5] and at human MC4R [6] was more than 10 µM throughout.

Consider `C[C@@H]1NC(=O)[C@H](CC(N)=O)NC(=O)[C@@H](Cc2ccccc2)NC(=O)[C@@H](Cc2ccccc2)NC(=O)[C@H](CCCNC(=N)N)NC(=O)[C@@H](NC(=O)[C@@H](N)Cc2ccc(O)cc2)CSSC[C@@H](C(=O)N[C@@H](Cc2ccc(O)cc2)C(N)=O)NC(=O)[C@H](Cc2ccccc2)NC1=O` [compound 29, Y[CRffNAFC]Y, reference compound] (HELM PEPTIDE1{Y.C.R.[dF].[dF].N.A.F.C.Y.[am]}$PEPTIDE1,PEPTIDE1,2:R3-9:R3$$$V2.0), for which the IC50 at human MC1R [1] was found to be 2.5 ± 0.5 µM; at human MC3R [2], 9.5 ± 0.9 µM; at human MC4R [3] it was 7.1 ± 0.5 µM; at human MC5R, 2.5 ± 0.3 µM. Besides, the Emax on human MC1R [4] was determined as 84%. The “agonistic activity at MC1R (in words)” value at human MC1R [4] (cAMP assay, hMC1R) was “selective and almost full agonistic activity”. In addition, the EC50 on human MC3R [5] and on human MC4R [6] was more than 100 µM throughout.

B1: PepNat D1-major (peptide)
chain: [NMeF]DINNNKG-NH2
modifications: bridge (positions not given here) via N‑methyl fused di‑pyrrolidine (I); reading uncertain; also: macrocycle via N-methyl fused di-pyrrolidine (I)
With B1, in the test with SPSB2, the Kd was 0.033 µM.

B2: macrocycle 27 (peptide)
chain: [NMeF]DINNNK
modifications: linker (positions not given here) via phenylmethanamine linker (IX); reading uncertain; also: cyclized via phenylmethanamine linker (IX), attachment points not given here
As to B2, the Kd with SPSB2 came to 0.087 µM.

B3: PepNat D3-major (peptide)
chain: [NMeF]DINNNKG-NH2
modifications: bridge (positions not given here) via NP‑inspired fragment III; reading uncertain; also: macrocycle via NP-inspired fragment III
B3 gave a Kd with SPSB2 of 0.309 µM.

For the molecule VDINNNKG (macrocycle via N-phenyl fused di-pyrrolidine (II) minor diastereomer, N-Me-Val) [PepNat D18-minor], the Kd with SPSB2 was found to be 0.139 µM.

Consider Ac-KEEKDINNNVKKT [iNOS peptide 22], for which binding with SPSB2 was put at a Kd of 0.0071 µM.

B4: PepNat D12-minor (peptide)
chain: [NMeL]DINNNKG-NH2
modifications: bridge (positions not given here) via N‑methyl fused di‑pyrrolidine (I); reading uncertain; also: macrocycle via N-methyl fused di-pyrrolidine (I), minor diastereomer
Turning to B4, in the test with SPSB2, the Kd was 0.127 µM.

VDINNNKG (macrocycle via N-phenyl fused di-pyrrolidine (II), N-Me-Val) [PepNat D18-major] registered a Kd with SPSB2 of 0.0022 µM.

B5: PepNat D13-minor (peptide)
chain: [NMeV]DINNNKG-NH2
modifications: bridge (positions not given here) via N‑methyl fused di‑pyrrolidine (I); reading uncertain; also: macrocycle via N-methyl fused di-pyrrolidine (I), minor diastereomer
B5 displayed a Kd in the test with SPSB2 of 0.078 µM.

B6: PepNat D4-major (peptide)
chain: [NMeF]DINNNKG-NH2
modifications: bridge (positions not given here) via pyrrolidine (IV); reading uncertain; also: macrocycle via pyrrolidine (IV)
In the case of B6, the Kd in the test with SPSB2 was determined as 0.018 µM.

B7: PepNat D13-major (peptide)
chain: [NMeV]DINNNKG-NH2
modifications: bridge (positions not given here) via N‑methyl fused di‑pyrrolidine (I); reading uncertain; also: macrocycle via N-methyl fused di-pyrrolidine (I)
B7 showed a Kd with SPSB2 of 0.015 µM. This Kd and that of the molecule before are within 1.5-fold of each other.

B8: cyclic peptidomimetic 26 (peptide)
chain: DINNN
modifications: bridge (positions not given here) via ortho ether aromatic unit (VIII); reading uncertain; also: cyclized via ortho ether aromatic unit (VIII), attachment points not given here
The molecule B8 registered a Kd with SPSB2 of 0.175 µM.

The values are drawn from publication PMC7307906, “Macrocyclic Modalities Combining Peptide Epitopes and Natural Product Fragments” (Journal of the American Chemical Society, 2020).
